We go through five molecules from ChEMBL document CHEMBL1201862, “PubChem BioAssay data set” (2004).

Test systems include SW-620; OVCAR-4; TK-10; LOX IMVI; MDA-MB-435; HT-29; OVCAR-8; HCT-116; OVCAR-5; HCC 2998; MDA-MB-231; SR; DU-145; UO-31; OVCAR-3; SF-268; NCI-H460; BT-549; COLO 205; HCT-15.
Experiment in all cases: NCI tumour cell line growth inhibition, 48 h

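Cells were grown in 96-well plates and exposed to each compound for 48 hours at five concentrations; endpoints were interpolated linearly between bracketing concentrations, or set to the highest concentration if not reached. Here, GI50 denotes the concentration required for 50% inhibition of growth.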 Activity calls are given as the source filed them. Rule as the data show it: active = GI50 up to about 1.1 µM and inactive = higher.

For `CC(C)(C)c1cc(C(C)(C)C)c(SC2OC(CO)C(O)C(O)C2O)c(O)c1O` (stereo not given), the GI50 is 19.3 µM (inactive) in the assay with SW-620; 12.3 µM (inactive) in the assay on OVCAR-4; 12.1 µM (inactive) in the assay with TK-10; 8.95 µM (inactive) with LOX IMVI; 4.94 µM (inactive) in the assay with MDA-MB-435; 7.1 µM (inactive) with HT-29. Besides, the GI50 is 7.62 µM (inactive) in the assay with OVCAR-8; 13.1 µM (inactive) with HCT-116; 9.18 µM (inactive) in the assay on OVCAR-5; 6.22 µM (inactive) with HCC 2998; 17.8 µM (inactive) with MDA-MB-231; 4.52 µM (inactive) in the assay on SR. The GI50 in the assay with DU-145 was 13.7 µM (inactive); in the assay on UO-31, 11.4 µM (inactive); with OVCAR-3, 7.66 µM (inactive); in the assay on SF-268, 6.97 µM (inactive); in the assay on NCI-H460, 3.24 µM (inactive); in the assay on BT-549, 10.6 µM (inactive). Also, the GI50 in the assay with COLO 205 was 8.45 µM (inactive); in the assay with HCT-15 it was 4.54 µM.

Consider `Nc1nc(Nc2ccccc2)sc1C(=O)c1cccs1`, for which the GI50 in the assay with SW-620 is 11.6 µM (inactive); in the assay on OVCAR-4 it was 15.5 µM (inactive); in the assay on TK-10, 16.4 µM (inactive); in the assay on LOX IMVI, 11.2 µM (inactive); in the assay with MDA-MB-435 it was 15 µM (inactive); in the assay on HT-29, 5.32 µM (inactive). The GI50 with OVCAR-8 was 21.1 µM (inactive); in the assay with HCT-116 it was 4.06 µM (inactive); in the assay with OVCAR-5, 11.7 µM (inactive); with HCC 2998, 17 µM (inactive); with MDA-MB-231, 28.7 µM (inactive); in the assay with SR, 1.74 µM (inactive). The GI50 is 8.97 µM (inactive) in the assay on DU-145; 11.5 µM (inactive) in the assay with UO-31; 3.94 µM (inactive) in the assay with OVCAR-3; 18.2 µM (inactive) in the assay on SF-268; 10.4 µM (inactive) with NCI-H460; 15.2 µM (inactive) with BT-549. Moreover, the GI50 was 7.06 µM (inactive) in the assay with COLO 205 and 10.8 µM with HCT-15.

For the molecule `Oc1cccc2cc(Br)cnc12`, the GI50 in the assay on SW-620 was 5.28 µM (inactive); with OVCAR-4 it was 2.86 µM (inactive); in the assay on TK-10, 35.8 µM (inactive); with LOX IMVI, 4.1 µM (inactive); in the assay on MDA-MB-435, 14.1 µM (inactive); with HT-29, 23.1 µM (inactive). Also, the GI50 with OVCAR-8 was 3.45 µM (inactive); in the assay on HCT-116, 4.97 µM (inactive); in the assay with OVCAR-5, 17.7 µM (inactive); in the assay with HCC 2998 it was 27.9 µM (inactive); in the assay on MDA-MB-231, 4.35 µM (inactive); in the assay with SR it was 3.42 µM (inactive). Also, the GI50 with DU-145 is 28.2 µM (inactive); in the assay on UO-31 it was 6.98 µM (inactive); in the assay on OVCAR-3, 2.67 µM (inactive); in the assay on SF-268, 2.33 µM (inactive); in the assay with NCI-H460 it was 5.89 µM (inactive); in the assay on BT-549, 28.1 µM (inactive). For the same molecule, the GI50 was 29.2 µM (inactive) with COLO 205 and 4.43 µM with HCT-15.

For `CCCCn1c2c(n(CCCC)c1=S)-c1c(n(CCCC)c(=S)n1CCCC)SSSS2`, the GI50 with SW-620 is 0.348 µM (active); in the assay with OVCAR-4, 0.367 µM (active); in the assay on TK-10, 1.22 µM (inactive); in the assay on LOX IMVI, 2.03 µM (inactive); in the assay with MDA-MB-435 it was 2.41 µM (inactive); in the assay on HT-29, 2.26 µM (inactive). Besides, the GI50 in the assay on OVCAR-8 was 0.718 µM (active); in the assay on HCT-116, 2.24 µM (inactive); with OVCAR-5 it was 0.362 µM (active); in the assay on HCC 2998, 7.59 µM (inactive); in the assay with MDA-MB-231 it was 0.656 µM (active); with SR, 0.397 µM (active). Moreover, the GI50 with DU-145 is 5.42 µM (inactive); in the assay on UO-31, 0.881 µM (active); with OVCAR-3, 0.267 µM (active); in the assay on SF-268, 3.44 µM (inactive); in the assay on NCI-H460, 30.8 µM (inactive); with BT-549 it was 0.973 µM (active). For the same molecule, the GI50 was 0.432 µM (active) in the assay on COLO 205 and 0.557 µM with HCT-15.

Take `CCCCC/C(=N\c1[nH]cnc1C(N)=O)OCC`: the GI50 with SW-620, in the assay on OVCAR-4, in the assay on TK-10, in the assay with LOX IMVI, in the assay on MDA-MB-435 and in the assay with HT-29 was > 100 µM (inactive) each time. Also, the GI50 in the assay with OVCAR-8, in the assay with HCT-116, with OVCAR-5, in the assay with HCC 2998, with MDA-MB-231 and in the assay with SR was > 100 µM (inactive) throughout. Besides, the GI50 is > 100 µM (inactive) in the assay on DU-145; 55.5 µM (inactive) in the assay with UO-31; > 100 µM (inactive) in the assay on OVCAR-3; > 100 µM (inactive) in the assay on SF-268; > 100 µM (inactive) in the assay with NCI-H460; > 100 µM (inactive) in the assay with BT-549. Besides, the GI50 is > 100 µM (inactive) in the assay on COLO 205 and above 100 µM with HCT-15.
